# Source: ChEMBL document CHEMBL3745616, “Identification of a potent inhibitor targeting human lactate dehydrogenase A and its metabolic modulation for cancer cell line” (Bioorg Med Chem Lett, 2016)
# pIC50: −log10 of the molar value. The source made the active and inactive calls. No cut-off for these calls is given here.
# How the values were obtained:
# [1] = target: L-lactate dehydrogenase A chain (Homo sapiens, UniProt P00338); assay: Inhibition of human LDHA using pyruvate as substrate assessed as disappearance of NADH preincubated for 10 mins followed by substrate addition every 2.5 secs for 10 mins by fluorescence analysis
# MCF7 [2] = assay: Cytotoxicity against human MCF7 cells after 72 hrs by MTT assay; type: functional, cell-based; conditions: MCF7, 72 h
# MCF7 [3] = assay: Reduction in lactate production in human MCF7 cells at 10 uM after 12 hrs; type: functional, cell-based
# MCF7 [4] = assay: Decrease in proton production rate in human MCF7 cells at 2 to 10 uM after 12 hrs by extracellular flux analysis; type: functional, cell-based
# MCF7 [5] = assay: Increase in oxygen consumption rate in human MCF7 cells at 2 to 10 uM after 12 hrs by extracellular flux analysis; type: functional, cell-based
# MCF7 [6] = assay: Decrease in extracellular acidfication rate in human MCF7 cells at 2 to 10 uM after 12 hrs by extracellular flux analysis; type: functional, cell-based
# MCF7 [7] = assay: Reduction in lactate production in human MCF7 cells at 5 uM after 12 hrs; type: functional, cell-based
# MCF7 [8] = assay: Reduction in lactate production in human MCF7 cells at 5 to 10 uM after 12 hrs; type: functional, cell-based
Structure (SMILES),pIC50 [1],pIC50 (MCF7 [2]),Activity (MCF7 [3]),inhibition (MCF7 [4]),Activity (MCF7 [5]),inhibition (MCF7 [6]),Activity (MCF7 [7]),Activity (MCF7 [8])
Cc1nc(C)c(C(=O)OC[C@H]2CCCO2)c(-c2ccccc2C(F)(F)F)c1C(=O)O,5.11,4.97,–,–,–,–,–,–
CCCC(=O)N(c1ccc2oc(C)c(C(=O)OCC)c2c1)S(=O)(=O)c1ccc(OC)cc1,5.46,< 4.52,–,–,–,–,–,–
COc1ncc(-c2ccc3c(Nc4cccc(C(=O)O)c4)c(S(N)(=O)=O)cnc3c2)c(OC)n1,5.32,< 4.52,Active,–,–,–,–,–

# These reach a higher pIC50 [1]. Values come first.
pIC50 [1],Structure (SMILES),pIC50 (MCF7 [2]),Activity (MCF7 [3]),inhibition (MCF7 [4]),Activity (MCF7 [5]),inhibition (MCF7 [6]),Activity (MCF7 [7]),Activity (MCF7 [8])
6.60,Cc1ccccc1OC[C@H](O)Cn1c(NCc2ccccc2)nc2c1c(=O)n(C)c(=O)n2C,5.81,–,Active,Active,Active,Active,Active
5.64,Cn1c(=O)c2c(nc(NCc3ccccc3)n2C[C@@H](O)COc2ccc(Cl)cc2)n(C)c1=O,5.46,–,–,–,–,–,–
